Peptide text beside a SMILES is read from it.
SMILES | logP
CC1(O)CC23CC(O)C4(O)C(CC(O)C4(C)C)C(C)(O)C2CCC1C3O (stereo not drawn) | 0.27
O=S1(=O)OC(c2ccc(O)cc2)(c2ccc(O)cc2)c2ccccc21 | 3.02
O=C1c2ccccc2Cc2ccccc21 | 3.66
Cc1cc2ccccc2cc1C | 4.4
O=c1cccccc1O | 0.53
O=C(/C=C/c1ccccc1)c1ccccc1 | 3.08
O=C(OC1CCCCC1)n1cc(F)c(=O)[nH]c1=O | 1.42
CC(=O)NCc1cc(C(=O)NN)ccn1 | -1.58
CC(C)C(=O)NC(CO)C(O)c1ccc([N+](=O)[O-])cc1 (stereo not drawn) | 0.79
CNC(=O)Oc1cccc(Cl)c1 | 2.03
Nc1nc(N)nc(-c2cccc(SC(F)(F)F)c2)n1 | 3.2
c1ccc(-c2ncc[nH]2)cc1 | 1.88
CCOC(=O)C(Cl)(Cl)Cl | 2.39
Clc1ccc(Cl)c(Cl)c1Cl | 4.6
CCCCCCCCOc1ccc(NC(=O)OCCN2CCCCC2)cc1 | 6.44
O=c1[nH]cc(Br)c(=O)[nH]1 | -0.21
CC(C)N | 0.26
O=C(NCc1ccc(O)cc1)c1ccccc1 | 1.87
NC(=O)c1ccco1 | -0.11
O=C(CF)NC(CO)C(O)c1ccc([N+](=O)[O-])cc1 (stereo not drawn) | 0.15
CCC(C)C(NC(=O)C(Cc1ccccc1)NC(C)=O)C(=O)NCC(N)=O (stereo not drawn) (Ac-Phe-Ile-Gly-NH2; configuration not given here) | 0.34

SMILES | logP
CN(C)C(CSS(=O)(=O)c1ccccc1)CSS(=O)(=O)c1ccccc1 | 3.36
NCCCCCc1ccncc1 | 1.4
O=C(O)Cc1cccc(Cl)c1 | 2.09
FCCl | 0.51
CC(=O)N[C@@H](CC(C)C)C(=O)N[C@@H](CC(N)=O)C(N)=O | -1.3
CCN(CC)C(=O)C1C2CC3C(OC(=O)C31)C2O (stereo not drawn) | 0.15
COC(=O)C1=CCCN(C)C1 | 0.35
O=Cc1ccncc1 | 0.43
CNC(=O)c1ccco1 | 0.23
Cc1cnnc2ccc(Cl)cc12 | 1.96
O=S1(=O)N=CNc2ccccc21 | 0.16
Brc1cc(Br)c(Br)cc1Br | 5.13
COc1ccc(C=CC(=O)O)cc1 | 2.68
c1ccc2c(c1)CCc1ccccc1-2 | 4.52
CCN(CC)CC(O)c1ccccc1 (stereo not drawn) | 2.02
FC(F)(F)c1cccc(C2CNCCO2)c1 (stereo not drawn) | 2.18
c1ccc(-c2ccncn2)cc1 | 1.92
NNC(=O)c1ccccc1Cl | 0.14
O=NN1CC=CC1 | 0.26
NC(=O)C=Cc1ccccc1 | 1.43
C=CNP(=O)(NC=C)NC(=O)c1cccc(OC)c1 | 0.86

SMILES | logP
COc1ccccc1S(I)=C(N(C)C)N(C)C (stereo not drawn) | -0.52
NNC(=O)c1cccc([N+](=O)[O-])c1 | 0.23
CC(=O)NC(=O)NC(C)=O | -0.68
CCOc1ccc2cc[nH]c2c1 | 2.53
FC(F)(F)c1ccc(C(F)(F)F)cc1 | 3.83
CCC1(C2=CC3CCC(C2)C3)C(=O)NC(=O)NC1=O (stereo not drawn) | 2.53
N#CNC(=N)N | -1.15
c1c[nH]nn1 | -0.29
COCCOC | -0.21
Nc1ccc2nccnc2c1 | 0.9
Cc1cc(C#N)ccn1 | 0.81
Cc1cccc2ccccc12 | 3.87
Oc1nc(Cl)c(Cl)cc1Cl | 3.21
C=CCCCCC | 3.99
Nc1c(S(=O)(=O)O)ccc2ccccc12 | -0.97
NCCc1cccnc1 | -0.11
O=NN1CCCCCC1 | 0.92
CON(C)C(=O)Nc1ccc(Br)c(Cl)c1 | 3.09
O=C(O)Cc1sc(-c2ccccc2)nc1-c1ccc(Cl)cc1 | 5.19
O=C(O)COc1ccccc1 | 1.34
CN(C)C(N(C)C)=S(I)c1ccc(O)cc1 (stereo not drawn) | -0.88

SMILES | logP
CCOC(=O)C(=Cc1cccc(F)c1)C(C)=O | 2.46
Nc1ncnc2c1ncn2C1CC(O)C(CO)O1 (stereo not drawn) | -0.55
C=CCN1CC[C@]23CCCC[C@H]2[C@H]1Cc1ccc(O)cc13 | 3.48
COc1ccc(-c2cc3ccccn3c2)cc1 | 4.2
COC(=O)NC(=S)Nc1ccccc1NC(=S)NC(=O)OC | 1.4
CC(=O)Nc1cccc2nccnc12 | 1.06
CC(=O)c1ccc(C#N)cc1 | 1.22
CCCCCl | 2.64
C=C1C(=O)OC2CC(C)C3CC(=O)C(CC12)C1(C3)C(=O)OC2CC(C)C3C=CC(=O)C3C(C)(O)C21 (stereo not drawn) | 1.66
COc1c(C)ncc(CO)c1CO | -0.1
Cc1ccc(C)o1 | 2.24
C=C(C)[C@H]1Cc2c(ccc3c2O[C@@H]2COc4cc(OC)c(OC)cc4[C@@H]2C3=O)O1 | 4.1
O=C(COC(=O)c1ccccc1)NC1CCCCC1 | 2.81
CCOC(=O)NC1=C(N2CC2)C(=O)C(NC(=O)OCC)=C(N2CC2)C1=O | -0.02
CCCOC/C(=N\c1ccc(Cl)cc1C(F)(F)F)n1ccnc1 | 1.4
Cc1cnccn1 | 0.21
CC(=O)c1ccccn1 | 0.85
NC(=O)Oc1ccccc1 | 1.08
CCOC(=O)C(F)(F)F | 1.18
O=C(c1ccccc1)c1ccccn1 | 1.88

From the OPERA property sets (Mansouri et al. 2018)
